Read-outs that look alike come from different tables or passages of the source.
Legend:
[1] = tested on: Fusarium nivale (var. majus); assay: Efficacy against Fusarium nivale (var. majus) (wheat), curative test; assay type: in vivo; conditions: evaluated 5 days after inoculation
Experimental: Example I: Efficacy Against Fusarium nivale (Var. Majus) (Wheat) [table] To produce a suitable preparation of active compound, 1 part by weight of active compound or active compound combination is mixed with the stated amounts of solvent and emulsifier, and the concentrate is diluted with water to the desired concentration. […] After the spray coating has dried on, the plants remain in a greenhouse under translucent incubation cloches at a temperature of approximately 10° C. and a relative atmospheric humidity of approximately 100%.

Botrytis cinerea = assay: In vivo preventive test Botrytis cinerea (grey mould); conditions: gherkin plants
Experimental: (§1) Example B: In Vivo Preventive Test Botrytis cinerea (Grey Mould) [table] The active ingredients are made soluble and homogenized in a mixture of Dimethyl sulfoxide/Acetone/Tween®80 and then diluted in water to the desired concentration. The young plants of gherkin are treated by spraying the active ingredient prepared as described above. Control plants are treated only with an aqueous solution of Acetone/Dimethyl sulfoxide/Tween® 80. After 24 hours, the plants are contaminated by spraying the leaves with an aqueous suspension of Botrytis cinerea spores. The contaminated gherkin plants are incubated for 4 to 5 days at 17° C. and at 90% relative humidity.

Sphaerotheca fuliginea = assay: In vivo preventive test on Sphaerotheca fuliginea (powdery mildew on cucurbits); conditions: 500 ppm, gherkin plants, preventive spray, evaluated 15 days after inoculation
Experimental: as §1, with “F:” for “B:”, “on Sphaerotheca fuliginea (Powdery Mildew on Cucurbits)” for “Botrytis cinerea (Grey Mould)”, “Sphaerotheca fuliginea” for “Botrytis cinerea”, “spores.” for “spores. The contaminated gherkin plants are incubated for 4 to 5 days at 17° C. and at 90% relative humidity.”

[2] = log P by HPLC on reversed-phase column (C 18), EEC Directive 79/831 Annex V.A8; assay type: physicochemical; conditions: for logP: Table 1, 40° C.
Experimental: In table 1, the log P values were determined in accordance with EEC Directive 79/831 Annex V.A8 by HPLC (High Performance Liquid Chromatography) on a reversed-phase column (C 18), using the method described below: Temperature: 40° C.; Mobile phases: 0.1% aqueous formic acid and acetonitrile; linear gradient from 10% acetonitrile to 90% acetonitrile. Calibration was carried out using unbranched alkan-2-ones (comprising 3 to 16 carbon atoms) with known log P values (determination of the log P values by the retention times using linear interpolation between two successive alkanones). lambda-max-values were determined using UV-spectra from 200 nm to 400 nm and the peak values of the chromatographic signals.

Pyrenophora teres = assay: In vivo preventive test on Pyrenophora teres (net blotch on barley); conditions: 500 ppm, barley plants, preventive spray, evaluated 14 days after inoculation
Experimental: as §1, with “D:” for “B:”, “on Pyrenophora teres (Net Blotch on Barley)” for “Botrytis cinerea (Grey Mould)”, “barley” for “gherkin”, “Pyrenophora teres” for “Botrytis cinerea”, “spores.” for “spores. The contaminated gherkin plants are incubated for 4 to 5 days at 17° C. and at 90% relative humidity.”

Septoria tritici = assay: In vivo preventive test on Septoria tritici (wheat); conditions: 500 ppm, wheat plants, preventive spray, evaluated 24 days after inoculation
Experimental: as §1, with “E:” for “B:”, “on Septoria tritici (Wheat)” for “Botrytis cinerea (Grey Mould)”, “wheat” for “gherkin”, “Septoria tritici” for “Botrytis cinerea”, “72 hours at 18° C. and at 100% relative humidity and then for 21” for “4 to 5”, “20°” for “17°”

Puccinia recondita = assay: In vivo preventive test on Puccinia recondita (brown rust on wheat); conditions: 500 ppm, wheat plants, preventive spray, evaluated 11 days after inoculation
Experimental: as §1, with “C:” for “B:”, “on Puccinia recondita (Brown Rust on Wheat)” for “Botrytis cinerea (Grey Mould)”, “wheat” for “gherkin”, “Puccinia recondita” for “Botrytis cinerea”, “spores.” for “spores. The contaminated gherkin plants are incubated for 4 to 5 days at 17° C. and at 90% relative humidity.”

Uromyces appendiculatus = assay: In vivo preventive test on Uromyces appendiculatus (bean rust); conditions: Table G; 500 ppm, bean plants, preventive spray, evaluated 11 days after inoculation
Experimental: as §1, with “G:” for “B:”, “on Uromyces appendiculatus (Bean Rust)” for “Botrytis cinerea (Grey Mould)”, “bean” for “gherkin”, “Uromyces appendiculatus” for “Botrytis cinerea”, “spores.” for “spores. The contaminated gherkin plants are incubated for 4 to 5 days at 17° C. and at 90% relative humidity.”

[3] = HPLC, 0.1% aqueous formic acid and acetonitrile
[4] = Table B, 500 ppm, preventive spray, evaluated 4 to 5 days after inoculation
[5] = reversed-phase HPLC column (C 18), Table 2 (amines of formula IIa), HPLC, 0.1% aqueous formic acid and acetonitrile, read-out: logP
[6] = reversed-phase HPLC column (C 18), Table 3 (aldehydes of formula IV), HPLC, 0.1% aqueous formic acid and acetonitrile, read-out: logP

## CC1CCc2cccc(C(C)N(C(=O)c3c(C(F)F)nn(C)c3F)C3CC3)c2C1 (stereo not shown) [50 from WO-2010/130767, N-cyclopropyl-3-(difluoromethyl)-5-fluoro-1-methyl-N-[1-(7-methyl-5,6,7,8-tetrahydronaphthalen-1-yl)ethyl]-1H-pyrazole-4-carboxamide]
[1]; dose 250 ppm
  Efficacy: 67%
[1]; dose 500 ppm
  Efficacy: 67%

## Cn1nc(C(F)F)c(C(=O)N(Cc2cccc3ccccc23)C2CC2)c1F [CMP1, N-cyclopropyl-3-(difluoromethyl)-5-fluoro-1-methyl-N-(1-naphthylmethyl)-1H-pyrazole-4-carboxamide, reference compound]
Botrytis cinerea; Table B2, dose 100 ppm
  Efficacy: 10%
Botrytis cinerea; Table B2, dose 500 ppm
  Efficacy: 70%

## Cc1nn(C)c(F)c1C(=O)N(Cc1cccc2c1CCCC2)C1CC1 [CMP2, N-cyclopropyl-5-fluoro-1,3-dimethyl-N-(5,6,7,8-tetrahydronaphthalen-1-ylmethyl)-1H-pyrazole-4-carboxamide, reference compound]
Botrytis cinerea; Table B2, dose 100 ppm
  Efficacy: 0%
Botrytis cinerea; Table B2, dose 500 ppm
  Efficacy: 35%

## Cn1cc(C(=O)N(Cc2cccc3c2CCCC3)C2CC2)c(C(F)F)n1 [CMP3, N-cyclopropyl-3-(difluoromethyl)-1-methyl-N-(5,6,7,8-tetrahydronaphthalen-1-ylmethyl)-1H-pyrazole-4-carboxamide, reference compound]
Botrytis cinerea; Table B2, dose 100 ppm
  Efficacy: 0%
Botrytis cinerea; Table B2, dose 500 ppm
  Efficacy: 0%

## Cc1nn(C)c(F)c1C(=O)N(C1CC1)C(C)c1cccc2c1CCCC2 (stereo not shown) [CMP4, N-cyclopropyl-5-fluoro-1,3-dimethyl-N-[1-(5,6,7,8-tetrahydronaphthalen-1-yl)ethyl]-1H-pyrazole-4-carboxamide]
[1]; dose 250 ppm
  Efficacy: 29%
[1]; dose 500 ppm
  Efficacy: 57%

## Cc1nn(C)c(F)c1C(=O)N(C1CC1)C(C)c1cccc2c1CCC(C)(C)C2 (stereo not shown) [CMP5, N-cyclopropyl-N-[1-(6,6-dimethyl-5,6,7,8-tetrahydronaphthalen-1-yl)ethyl]-5-fluoro-1,3-dimethyl-1H-pyrazole-4-carboxamide]
[1]; dose 250 ppm
  Efficacy: 44%
[1]; dose 500 ppm
  Efficacy: 56%

## Cn1cc(C(=O)N(Cc2cccc3c2C2C=CC3C2)C2CC2)c(C(F)F)n1 (stereo not shown) [I.03]
Sphaerotheca fuliginea
  Efficacy: 98%
[2]; [3]
  logP: 3.19
Pyrenophora teres
  Efficacy: 88%

## Cn1nc(C(F)F)c(C(=O)N(Cc2cccc3c2C2C=CC3C2)C2CC2)c1Cl (stereo not shown) [I.05]
Septoria tritici
  Efficacy: 81%
Sphaerotheca fuliginea
  Efficacy: 72%
[2]; [3]
  logP: 3.70
Puccinia recondita
  Efficacy: 94%

## Cn1nc(C(F)F)c(C(=O)N(Cc2cccc3c2C2CCC3C2=C(Cl)Cl)C2CC2)c1Cl (stereo not shown) [I.06]
Septoria tritici
  Efficacy: 71%
Sphaerotheca fuliginea
  Efficacy: 95%
[2]; [3]
  logP: 4.66
Pyrenophora teres
  Efficacy: 71%

## Cn1nc(C(F)F)c(C(=S)N(Cc2cccc3c2C2CCC3C2=C(Cl)Cl)C2CC2)c1Cl (stereo not shown) [I.09]
Uromyces appendiculatus
  Efficacy: 78%
Sphaerotheca fuliginea
  Efficacy: 98%
[2]; [3]
  logP: 5.39

## Cn1cc(C(=S)N(Cc2cccc3c2C2CCC3C2=C(Cl)Cl)C2CC2)c(C(F)F)n1 (stereo not shown) [I.10]
Septoria tritici
  Efficacy: 100%
Sphaerotheca fuliginea
  Efficacy: 100%
[2]; [3]
  logP: 4.83
Puccinia recondita
  Efficacy: 88%
Botrytis cinerea; [4]
  Efficacy: 100%

## Cn1nc(C(F)F)c(C(=O)N(Cc2cccc3c2C2CCC3O2)C2CC2)c1F (stereo not shown) [I.12]
Septoria tritici
  Efficacy: 100%
Sphaerotheca fuliginea
  Efficacy: 100%
[2]; [3]
  logP: 2.55
Puccinia recondita
  Efficacy: 89%
Botrytis cinerea; [4]
  Efficacy: 99%

## Cn1nc(C(F)F)c(C(=O)N(Cc2cccc3c2C2C=CC3O2)C2CC2)c1Cl (stereo not shown) [I.13]
[2]; [3]
  logP: 2.42

## Cn1nc(C(F)F)c(C(=O)N(Cc2cccc3c2C2C=CC3O2)C2CC2)c1F (stereo not shown) [I.14]
Septoria tritici
  Efficacy: 98%
Sphaerotheca fuliginea
  Efficacy: 94%
[2]; [3]
  logP: 2.31
Pyrenophora teres
  Efficacy: 75%

## Cn1cc(C(=O)N(Cc2cccc3c2C2C=CC3O2)C2CC2)c(C(F)F)n1 (stereo not shown) [I.15]
Sphaerotheca fuliginea
  Efficacy: 72%
[2]; [3]
  logP: 2.05

## Cc1cc(C(=O)N(Cc2cccc3c2C2C=CC3O2)C2CC2)c(C)o1 (stereo not shown) [I.16]
Septoria tritici
  Efficacy: 81%
[2]; [3]
  logP: 2.82

## Cn1cc(C(=O)N(Cc2cccc3c2C2C=CC3O2)C2CC2)c(C(F)(F)F)c1 (stereo not shown) [I.17]
[2]; [3]
  logP: 2.70

## Cc1nc(C(F)F)c(C(=O)N(Cc2cccc3c2C2C=CC3O2)C2CC2)s1 (stereo not shown) [I.18]
[2]; [3]
  logP: 2.51

## Cn1nc(C(F)F)c(C(=S)N(Cc2cccc3c2C2C=CC3O2)C2CC2)c1F (stereo not shown) [I.19]
[2]; [3]
  logP: 3.04

## Cn1nc(C(F)F)c(C(=S)N(Cc2cccc3c2C2C=CC3O2)C2CC2)c1Cl (stereo not shown) [I.20]
[2]; [3]
  logP: 3.17

## O=C(c1ccsc1Br)N(Cc1cccc2c1C1C=CC2O1)C1CC1 (stereo not shown) [I.21]
[2]; [3]
  logP: 2.96

## Cc1cc(C(=O)N(Cc2cccc3c2C2CCC3O2)C2CC2)c(C)o1 (stereo not shown) [I.22]
[2]; [3]
  logP: 3.04

## c1cc(CNC2CC2)c2c(c1)C1CCC2C1 (stereo not shown) [IIa.1, N-(1,2,3,4-tetrahydro-1,4-methanonaphthalen-5-ylmethyl)cyclopropanamine]
[2]; [5]
  chromatographic logP: 1.31

## C1=CC2CC1c1cccc(CNC3CC3)c12 (stereo not shown) [IIa.2, N-(1,4-dihydro-1,4-methanonaphthalen-5-ylmethyl)cyclopropanamine]
[2]; [5]
  chromatographic logP: 1.13

## ClC(Cl)=C1C2CCC1c1c(CNC3CC3)cccc12 (stereo not shown) [IIa.3, N-{[9-(dichloromethylene)-1,2,3,4-tetrahydro-1,4-methanonaphthalen-5-yl]methyl}-cyclopropanamine]
[2]
  chromatographic logP: 1.95

## c1cc(CNC2CC2)c2c(c1)C1CCC2O1 (stereo not shown) [IIa.4, N-(1,2,3,4-tetrahydro-1,4-epoxynaphthalen-5-ylmethyl)cyclopropanamine]
[2]; [5]
  chromatographic logP: 0.45

## C1=CC2OC1c1cccc(CNC3CC3)c12 (stereo not shown) [IIa.5, N-(1,4-dihydro-1,4-epoxynaphthalen-5-ylmethyl)cyclopropanamine]
[2]; [5]
  chromatographic logP: 0.13

## O=Cc1cccc2c1C1CCC2C1 (stereo not shown) [IV.1, 1,2,3,4-tetrahydro-1,4-methanonaphthalene-5-carbaldehyde]
[2]; [6]
  chromatographic logP: 3.13

## O=Cc1cccc2c1C1C=CC2C1 (stereo not shown) [IV.2, 1,4-dihydro-1,4-methanonaphthalene-5-carbaldehyde]
[2]; [6]
  chromatographic logP: 2.73

## O=Cc1cccc2c1C1CCC2C1=C(Cl)Cl (stereo not shown) [IV.3, 9-(dichloromethylene)-1,2,3,4-tetrahydro-1,4-methanonaphthalene-5-carbaldehyde]
[2]
  chromatographic logP: 4.09

## O=Cc1cccc2c1C1CCC2O1 (stereo not shown) [IV.4, 1,2,3,4-tetrahydro-1,4-epoxynaphthalene-5-carbaldehyde]
[2]; [6]
  chromatographic logP: 1.66

## O=Cc1cccc2c1C1C=CC2O1 (stereo not shown) [IV.5, 1,4-dihydro-1,4-epoxynaphthalene-5-carbaldehyde]
[2]; [6]
  chromatographic logP: 1.5
